The values below come from US8084399B2, “Process for screening of a binding amphiphilic peptides specific for hairpin RNA” (priority 2009, dated 2011).

“And” between values parts separate entries of the source, which are not always exact repeats. Identical values can stand only once. Where no end group is shown, it is not given here. [ ]: non-standard residue; d: D form. Orn = NCCC[C@H](N)C(=O)O; Dab = NCC[C@H](N)C(=O)O; Dap = NC[C@H](N)C(=O)O

For data set [1], the target named is RRE hairpin RNA. The experiment in a line: Fluorescence anisotropy competition with Rev-N-rhodamine probe, binding to RRE hairpin RNA. Particulars: 20° C., pH 7.4, read-out: Dissociation constant, RRE. On the set-up: species or system HIV. The method, then:
(§1) Binding force to each target hairpin RNA (IRES, RRE, TAR and 16S A-site) was measured by fluorescence polarization using alanine scanned peptide library (1b-1h).
(§2) Particularly, […] of each target RNA was prepared at the concentration of 10 mM, which stood at 65° C. for 10 minutes and then cooled down slowly at room temperature, leading to folding. The amphiphilic peptide was prepared respectively at the concentration of […], which were maintained at 0° C. As a probe, rev peptide labeled with rhodamine (Rev-N-rhodamine) emitting […] fluorescence was prepared at the concentration of 10 mM. Buffer was composed of 140 mM NaCl, 5 mM KCl, 1 mM MgCl2, and 20 mM HEPES (N-2-Hydroxyethylpiperazine-N′-2-Ethanesulfonic Acid, pH 7.4). Fluorescence Anisotropy was measured using AMINCO-Bowman Series Luminescence Spectrometer at 20° C. Ten nM of the probe was added in […] of buffer, to which target RNA was added to induce interaction between the probe and the target RNA. At that time, anisotropy value increased. Then, the synthesized peptide competing with the probe for binding site was added thereto with increasing the concentration slowly. Changes of fluorescence polarization were measured until fluorescence polarization reached as low as the beginning. Considering the concentration and amount of the peptide added, binding force to target RNA was calculated. That is, the binding strength between target RNA and peptide was determined according to the following KaleidaGraph. [Peptide]=Kd(Amax−A)/[Kd(A−A0)+1]×[RNA]−Kd(A−A0)^2[Probe]0/(Amax−A)(Amax−A0)
(§3) Herein, [Peptide] indicates the concentration of peptide, [RNA] indicates the concentration of target RNA, and [Probe]0 indicates the concentration of probe. A is the value of fluorescence anisotropy of sample, Amax is the value of totally bound tracer, and A0 is the value of totally free tracer.
A general note: In fluorescence polarisation assays a small probe gives low polarisation when free and higher when bound to something large.

In data set [2] the target is TAR hairpin RNA. The experiment in a line: Fluorescence anisotropy competition with Rev-N-rhodamine probe, binding to TAR hairpin RNA. On the set-up: species or system HIV. As to conditions: for Kd: fluorescence anisotropy, 20° C., pH 7.4, read-out: Dissociation constant, TAR. Here is the method: as §1, §2, §3
Data set [3] addresses 16S ribosomal RNA A-site. The experiment in a line: Fluorescence anisotropy competition with Rev-N-rhodamine probe, binding to 16S A-site. Particulars: 20° C., pH 7.4, read-out: Dissociation constant, 16S A-site. Here is the method: as §1, §2, §3
In data set [4] the test system is IRES domain IV hairpin. Kind of data set: Fluorescence anisotropy competition with Rev-N-rhodamine probe, binding to IRES hairpin. Also on record: species or system HCV. As to conditions: for differentiation coefficient (IRES): (mean Kd to other hairpin RNA)/(Kd to one hairpin RNA); for Kd: fluorescence anisotropy, 20° C., pH 7.4, read-out: Dissociation constant, IRES; for binding strength to IRES, in words: compared with the original peptide. Here is the method: as §1, §2, §3

Data set [5] in a line: Circular dichroism (CD), percentage of alpha-helix. The class given is physicochemical. As to conditions: CD at 20° C., condition not given; for Alpha-helical rate (%), second value of pair: value after the slash; for Alpha-helical rate (%), first value of pair: value before the slash. The method, then: To investigate alpha-helix of the amphiphilic peptide (1a-1h), circular dichroism (CD) was performed. Particularly, CD was measured at 20° C. by using JASCO model J715 spectropolarimeter. Scanning was performed at 190-250 nm three times (bandwidth: 1 nm, datapitch: 0.5 nm, speed: 100 nm/min), which were averaged to obtain CD data. Spectrum was corrected by measuring background spectrum. CD signal was recorded after modulating thereof with mean residue ellipticity [Q]. Percentage (%) of alpha-helix(fn) was calculated by the following formula. [Q]=Qobs[MRW/(10lc)]
MRW=mean residue weight (dividing molecular weight by the number of peptide bond, l=pathway length (cm), c=concentration (mg/mL). fn=([Q]222−[Q]coil)/([Q]helix−[Q]coil) [Q]helix=−40,000[…]+100t [Q]coil=640−45t
[Q]222=mean residue ellipticity at 222 nm (deg cm2 mol-1), [Q]helix=ellipticity of peptide having complete helical structure, [Q]coil=ellipticity of peptide having complete random coil structure, n=number of amino acid, t=° C.
Background: Circular dichroism is widely used to follow secondary structure.

Consider “LKKLLKWLOrnKLLKLAG (LKKLLKWL[Orn]KLLKLAG-NH2; N-terminus assumed; SMILES CC(C)C[C@H](NC(=O)[C@H](CCCCN)NC(=O)[C@H](CC(C)C)NC(=O)[C@H](CC(C)C)NC(=O)[C@H](CCCCN)NC(=O)[C@H](CCCN)NC(=O)[C@H](CC(C)C)NC(=O)[C@H](Cc1c[nH]c2ccccc12)NC(=O)[C@H](CCCCN)NC(=O)[C@H](CC(C)C)NC(=O)[C@H](CC(C)C)NC(=O)[C@H](CCCCN)NC(=O)[C@H](CCCCN)NC(=O)[C@@H](N)CC(C)C)C(=O)N[C@@H](C)C(=O)NCC(N)=O) [3b, third generation peptide, both faces modified]”, for which the Kd in data set [1] was 0.018 µM; in data set [2], 0.022 µM; in data set [3] it was 0.024 µM; in data set [4], 0.0051 µM. Also, in data set [4], the “differentiation coefficient (IRES)” value worked out at 4.2. In addition, in data set [5], the “Alpha-helical rate (%), second value of pair” value is 52%. In addition, in data set [5], the “Alpha-helical rate (%), first value of pair” value is listed as 34%.

Turning to “LKKLLDabLLOrnKLLKLAG (LKKLL[Dab]LL[Orn]KLLKLAG-NH2; N-terminus assumed; SMILES CC(C)C[C@H](NC(=O)[C@H](CCCCN)NC(=O)[C@H](CC(C)C)NC(=O)[C@H](CC(C)C)NC(=O)[C@H](CCCCN)NC(=O)[C@H](CCCN)NC(=O)[C@H](CC(C)C)NC(=O)[C@H](CC(C)C)NC(=O)[C@H](CCN)NC(=O)[C@H](CC(C)C)NC(=O)[C@H](CC(C)C)NC(=O)[C@H](CCCCN)NC(=O)[C@H](CCCCN)NC(=O)[C@@H](N)CC(C)C)C(=O)N[C@@H](C)C(=O)NCC(N)=O) [2j, second generation peptide, hydrophilic face modified]”, the Kd in data set [1] was determined as 0.021 µM; in data set [2], 0.01 µM; in data set [3], 0.014 µM; in data set [4], 0.0024 µM. In data set [4], the “differentiation coefficient (IRES)” value came out at 6.3. Moreover, the “Alpha-helical rate (%), second value of pair” value in data set [5] worked out at 57%. In addition, the “Alpha-helical rate (%), first value of pair” value in data set [5] was 49%.

For “LKKLLALLKKLLKLKG [peptide 1d, alanine scanned first generation peptide]”, the Kd turned out to be 0.15 µM in data set [1], 0.15 µM in data set [2], 0.16 µM in data set [3] and 0.15 µM in data set [4]. Besides, the “binding strength to TAR, in words” value in data set [2] (compared with the original peptide) is “three fold binding strength”. Besides, the “differentiation coefficient (IRES)” value in data set [4] is 1.0. Besides, in data set [4], the “binding strength to IRES, in words” value is “reduced binding strength”. In addition, in data set [5], the “Alpha-helical rate (%), second value of pair” value was 47%. Also, in data set [5], the “Alpha-helical rate (%), first value of pair” value is given as 12%.

On to “LKKLLKLWKKLLKLAG [2r, tryptophan scanned second generation peptide]”, for which the Kd stood at 0.037 µM in data set [1], 0.082 µM in data set [2], 0.065 µM in data set [3] and 0.092 µM in data set [4]. In addition, in data set [4], the “differentiation coefficient (IRES)” value is on record as 0.75. Moreover, in data set [5], the “Alpha-helical rate (%), second value of pair” value is given as 59%. The “Alpha-helical rate (%), first value of pair” value in data set [5] is on record as 14%.

For “LKKLLKLLKKWLKLAG [2s, tryptophan scanned second generation peptide]”, the Kd was 0.0095 µM in data set [1], 0.043 µM in data set [2], 0.024 µM in data set [3] and 0.0044 µM in data set [4]. The “differentiation coefficient (IRES)” value in data set [4] stood at 5.8. Besides, the “Alpha-helical rate (%), second value of pair” value in data set [5] turned out to be 60%. For the same substance, the “Alpha-helical rate (%), first value of pair” value in data set [5] stood at 27%.

“LKKLLKLLKKLLALKG [1g, alanine scanned first generation peptide]”: in data set [1], the Kd is 0.09 µM. Moreover, the Kd in data set [2] is 0.039 µM. Moreover, the Kd in data set [3] worked out at 0.2 µM. Further, in data set [4], the “differentiation coefficient (IRES)” value is recorded as 0.47; the “binding strength to IRES, in words” value is given as “reduced binding strength”; the Kd turned out to be 0.21 µM. In data set [5], the “Alpha-helical rate (%), second value of pair” value is 44% and the “Alpha-helical rate (%), first value of pair” value was determined as 8%.

“LKKLLKWLKKLLKLAG [2q, tryptophan scanned second generation peptide]”: in data set [1], the Kd came out at 0.0012 µM. In data set [2], the Kd turned out to be 0.021 µM. In addition, in data set [3], the Kd was determined as 0.017 µM. For the same substance, in data set [4], the “differentiation coefficient (IRES)” value is 15; the “binding strength to IRES, in words” value is on record as “significantly increased”; the Kd was determined as 0.00087 µM. For the same substance, in data set [5], the “Alpha-helical rate (%), second value of pair” value is on record as 71% and the “Alpha-helical rate (%), first value of pair” value was found to be 19%.

Turning to “LKKLLKLLOrnKLLDapLAG (LKKLLKLL[Orn]KLL[Dap]LAG-NH2; N-terminus assumed; SMILES CC(C)C[C@H](NC(=O)[C@H](CN)NC(=O)[C@H](CC(C)C)NC(=O)[C@H](CC(C)C)NC(=O)[C@H](CCCCN)NC(=O)[C@H](CCCN)NC(=O)[C@H](CC(C)C)NC(=O)[C@H](CC(C)C)NC(=O)[C@H](CCCCN)NC(=O)[C@H](CC(C)C)NC(=O)[C@H](CC(C)C)NC(=O)[C@H](CCCCN)NC(=O)[C@H](CCCCN)NC(=O)[C@@H](N)CC(C)C)C(=O)N[C@@H](C)C(=O)NCC(N)=O) [peptide 2k, second generation peptide, hydrophilic face modified]”, the Kd in data set [1] turned out to be 0.02 µM; in data set [2], 0.013 µM; in data set [3], 0.017 µM; in data set [4], 0.00068 µM. Further, the “differentiation coefficient (IRES)” value in data set [4] was 24 and 25. For the same substance, the “Alpha-helical rate (%), second value of pair” value in data set [5] is 61%. For the same substance, the “Alpha-helical rate (%), first value of pair” value in data set [5] came to 48%.

With “LKKLLDapLLKKLLKLAG (LKKLL[Dap]LLKKLLKLAG-NH2; N-terminus assumed; SMILES CC(C)C[C@H](NC(=O)[C@H](CCCCN)NC(=O)[C@H](CC(C)C)NC(=O)[C@H](CC(C)C)NC(=O)[C@H](CCCCN)NC(=O)[C@H](CCCCN)NC(=O)[C@H](CC(C)C)NC(=O)[C@H](CC(C)C)NC(=O)[C@H](CN)NC(=O)[C@H](CC(C)C)NC(=O)[C@H](CC(C)C)NC(=O)[C@H](CCCCN)NC(=O)[C@H](CCCCN)NC(=O)[C@@H](N)CC(C)C)C(=O)N[C@@H](C)C(=O)NCC(N)=O) [2c, second generation peptide, hydrophilic face modified]”, the Kd in data set [1] stood at 0.0096 µM; in data set [2], 0.0057 µM; in data set [3] it was 0.012 µM; in data set [4], 0.0038 µM. In data set [4], the “differentiation coefficient (IRES)” value is reported as 2.4. Also, the “Alpha-helical rate (%), second value of pair” value in data set [5] worked out at 61%. In data set [5], the “Alpha-helical rate (%), first value of pair” value is 26%.

Regarding “LKKLLKLLDapKLLKLAG (LKKLLKLL[Dap]KLLKLAG-NH2; N-terminus assumed; SMILES CC(C)C[C@H](NC(=O)[C@H](CCCCN)NC(=O)[C@H](CC(C)C)NC(=O)[C@H](CC(C)C)NC(=O)[C@H](CCCCN)NC(=O)[C@H](CN)NC(=O)[C@H](CC(C)C)NC(=O)[C@H](CC(C)C)NC(=O)[C@H](CCCCN)NC(=O)[C@H](CC(C)C)NC(=O)[C@H](CC(C)C)NC(=O)[C@H](CCCCN)NC(=O)[C@H](CCCCN)NC(=O)[C@@H](N)CC(C)C)C(=O)N[C@@H](C)C(=O)NCC(N)=O) [2f, second generation peptide, hydrophilic face modified]”, the Kd in data set [1] came to 0.01 µM; in data set [2] it was 0.011 µM; in data set [3], 0.015 µM; in data set [4], 0.02 µM. The “differentiation coefficient (IRES)” value in data set [4] is on record as 0.6. Besides, the “Alpha-helical rate (%), second value of pair” value in data set [5] worked out at 57%. For the same substance, the “Alpha-helical rate (%), first value of pair” value in data set [5] was determined as 25%.

In the case of “LKKLLKLLKALLKLKG [1f, alanine scanned first generation peptide]”, the Kd amounted to 0.092 µM in data set [1], 0.025 µM in data set [2], 0.064 µM in data set [3] and 0.033 µM in data set [4]. In addition, the “differentiation coefficient (IRES)” value in data set [4] is given as 1.8. In data set [5], the “Alpha-helical rate (%), second value of pair” value is listed as 45%. Further, the “Alpha-helical rate (%), first value of pair” value in data set [5] turned out to be 17%.
